Assay results taken from patent US20230278972A1, “SUBSTITUTED HALOALKYL SULFONANILIDE HERBICIDES” (FMC Corporation, priority 2020, published 2023).

Key:
Assay type in all cases: in vivo
[1] = test system: barnyardgrass (Echinochloa crus-galli); experiment: Test A preemergence, barnyardgrass; details: Preemergence; for Barnyardgrass plant response rating: 125 g ai/ha, visual injury on 0 to 100 scale (0 no effect, 100 complete control), approximately 10 days; for Plant response rating, Barnyardgrass: 500 g ai/ha, 0 to 100 scale (0 no effect, 100 complete control)
Procedure, shortened: (§1)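 Directed soil spray at planting gave the preemergence treatment, while foliar application to one- to two-leaf seedlings (2–10 cm) gave the postemergence one; pots held a loam and sand mixture and chemicals were carried in a non-phytotoxic solvent with surfactant.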

kochia (Bassia scoparia) [2] = experiment: Test A preemergence, kochia; details: Preemergence; for Kochia plant response rating: 125 g ai/ha, visual injury on 0 to 100 scale (0 no effect, 100 complete control), approximately 10 days; for Plant response rating, Kochia: 500 g ai/ha, 0 to 100 scale (0 no effect, 100 complete control)
Procedure, shortened: as §1

[3] = test system: ragweed (common ragweed, Ambrosia artemisiifolia); experiment: Test A preemergence, ragweed; details: Preemergence; for Ragweed plant response rating: 125 g ai/ha, visual injury on 0 to 100 scale (0 no effect, 100 complete control), approximately 10 days; for Plant response rating, Ragweed: 500 g ai/ha, 0 to 100 scale (0 no effect, 100 complete control)
Procedure, shortened: as §1

[4] = test system: Ryegrass, Italian (Italian ryegrass, Lolium multiflorum); experiment: Test A preemergence, Ryegrass, Italian; details: Preemergence; for Ryegrass, Italian plant response rating: 125 g ai/ha, visual injury on 0 to 100 scale (0 no effect, 100 complete control), approximately 10 days; for Plant response rating, Ryegrass, Italian: 500 g ai/ha, 0 to 100 scale (0 no effect, 100 complete control)
Procedure, shortened: as §1

[5] = test system: Foxtail, Giant (giant foxtail, Setaria faberi); experiment: Test A preemergence, Foxtail, Giant; details: Preemergence; for Foxtail, Giant plant response rating: 125 g ai/ha, visual injury on 0 to 100 scale (0 no effect, 100 complete control), approximately 10 days; for Plant response rating, Foxtail, Giant: 500 g ai/ha, 0 to 100 scale (0 no effect, 100 complete control)
Procedure, shortened: as §1

[6] = test system: pigweed (Amaranthus retroflexus); experiment: Test A preemergence, pigweed; details: for Pigweed plant response rating: 125 g ai/ha, visual injury on 0 to 100 scale (0 no effect, 100 complete control), approximately 10 days; for Plant response rating, Pigweed: 500 g ai/ha, 0 to 100 scale (0 no effect, 100 complete control)
Procedure, shortened: (§2)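 Compounds in non-phytotoxic solvent with surfactant. Soil: loam/sand. Preemergence via directed soil spray after seeding; postemergence on seedlings 2–10 cm, one- to two-leaf.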

[7] = test system: barnyardgrass (Echinochloa crus-galli); experiment: Test A postemergence, barnyardgrass; details: Postemergence, 0 to 100 scale (0 no effect, 100 complete control); for Plant response rating, Barnyardgrass: 125 g ai/ha, visual injury approx. 10 days; for Barnyardgrass plant response rating: 500 g ai/ha, visual injury vs untreated controls after approx. 10 days
Procedure, shortened: as §2

kochia (Bassia scoparia) [8] = experiment: Test A postemergence, kochia; details: Postemergence, 0 to 100 scale (0 no effect, 100 complete control); for Plant response rating, Kochia: 125 g ai/ha, visual injury approx. 10 days; for Kochia plant response rating: 500 g ai/ha, visual injury vs untreated controls after approx. 10 days
Procedure, shortened: as §1

[9] = test system: ragweed (common ragweed, Ambrosia artemisiifolia); experiment: Test A postemergence, ragweed; details: Postemergence, 0 to 100 scale (0 no effect, 100 complete control); for Plant response rating, Ragweed: 125 g ai/ha, visual injury approx. 10 days; for Ragweed plant response rating: 500 g ai/ha, visual injury vs untreated controls after approx. 10 days
Procedure, shortened: as §1

[10] = test system: Ryegrass, Italian (Italian ryegrass, Lolium multiflorum); experiment: Test A postemergence, Ryegrass, Italian; details: Postemergence, 0 to 100 scale (0 no effect, 100 complete control); for Plant response rating, Ryegrass, Italian: 125 g ai/ha, visual injury approx. 10 days; for Ryegrass, Italian plant response rating: 500 g ai/ha, visual injury vs untreated controls after approx. 10 days
Procedure, shortened: as §1

[11] = test system: Foxtail, Giant (giant foxtail, Setaria faberi); experiment: Test A postemergence, Foxtail, Giant; details: Postemergence, 0 to 100 scale (0 no effect, 100 complete control); for Plant response rating, Foxtail, Giant: 125 g ai/ha, visual injury approx. 10 days; for Foxtail, Giant plant response rating: 500 g ai/ha, visual injury vs untreated controls after approx. 10 days
Procedure, shortened: as §1

[12] = test system: pigweed (Amaranthus retroflexus); experiment: Test A postemergence, pigweed; details: Postemergence, 0 to 100 scale (0 no effect, 100 complete control); for Plant response rating, Pigweed: 125 g ai/ha, visual injury approx. 10 days; for Pigweed plant response rating: 500 g ai/ha, visual injury vs untreated controls after approx. 10 days
Procedure, shortened: as §1

[13] = test system: wheat (Triticum aestivum); experiment: Test A postemergence, wheat; details: Postemergence, 0 to 100 scale (0 no effect, 100 complete control); for Plant response rating, Wheat: 125 g ai/ha, visual injury approx. 10 days; for Wheat plant response rating: 500 g ai/ha, visual injury vs untreated controls after approx. 10 days
Procedure, shortened: as §2

corn (Zea mays) = experiment: Test A postemergence, corn; details: Postemergence, 0 to 100 scale (0 no effect, 100 complete control); for Plant response rating, Corn: 125 g ai/ha, visual injury approx. 10 days; for Corn plant response rating: 500 g ai/ha, visual injury vs untreated controls after approx. 10 days
Procedure, shortened: as §1

[14] = test system: blackgrass (Alopecurus myosuroides); experiment: Test A postemergence, blackgrass; details: Postemergence, 0 to 100 scale (0 no effect, 100 complete control); for Plant response rating, Blackgrass: 125 g ai/ha, visual injury approx. 10 days; for Blackgrass plant response rating: 500 g ai/ha, visual injury vs untreated controls after approx. 10 days
Procedure, shortened: as §1

[15] = test system: galium (catchweed bedstraw, Galium aparine); experiment: Test A postemergence, galium; details: Postemergence, 0 to 100 scale (0 no effect, 100 complete control); for Plant response rating, Galium: 125 g ai/ha, visual injury approx. 10 days; for Galium plant response rating: 500 g ai/ha, visual injury vs untreated controls after approx. 10 days
Procedure, shortened: as §2

Compound | Barnyardgrass plant response rating [1] | Plant response rating, Barnyardgrass [1] | Kochia plant response rating (kochia (Bassia scoparia) [2]) | Plant response rating, Kochia (kochia (Bassia scoparia) [2]) | Ragweed plant response rating [3] | Plant response rating, Ragweed [3] | Ryegrass, Italian plant response rating [4] | Plant response rating, Ryegrass, Italian [4] | Foxtail, Giant plant response rating [5] | Plant response rating, Foxtail, Giant [5] | Pigweed plant response rating [6] | Plant response rating, Pigweed [6] | Plant response rating, Barnyardgrass [7] | Barnyardgrass plant response rating [7] | Plant response rating, Kochia (kochia (Bassia scoparia) [8]) | Kochia plant response rating (kochia (Bassia scoparia) [8]) | Plant response rating, Ragweed [9] | Ragweed plant response rating [9] | Plant response rating, Ryegrass, Italian [10] | Ryegrass, Italian plant response rating [10] | also measured
CCCn1nccc(-c2cc(NS(=O)(=O)C(F)(F)F)c(C)cc2C)c1=O [Compound 58] | 100 | 100 | 0 | 80 | 0 | 0 | 70 | 100 | 100 | 100 | 0 | 50 | 20 | 90 | 0 | 20 | 0 | 20 | 0 | 60 | Plant response rating, Foxtail, Giant [11]: 30; Foxtail, Giant plant response rating [11]: 90; Plant response rating, Pigweed [12]: 0; Pigweed plant response rating [12]: 0; Plant response rating, Wheat [13]: 20; Wheat plant response rating [13]: 70; Plant response rating, Corn (corn (Zea mays)): 20; Corn plant response rating (corn (Zea mays)): 50; Plant response rating, Blackgrass [14]: 0; Blackgrass plant response rating [14]: 30; Plant response rating, Galium [15]: 80; Galium plant response rating [15]: 90
Cc1ccc(-c2ccnn(C)c2=O)cc1NS(=O)(=O)C(F)(F)F [Compound 59] | 0 | 90 | 40 | 90 | 0 | 30 | 0 | 60 | 20 | 70 | 30 | 60 | 0 | 80 | 50 | 70 | 20 | 60 | 0 | 60 | Plant response rating, Foxtail, Giant [11]: 10; Foxtail, Giant plant response rating [11]: 70; Plant response rating, Pigweed [12]: 0; Pigweed plant response rating [12]: 60; Plant response rating, Wheat [13]: 0; Wheat plant response rating [13]: 40; Plant response rating, Corn (corn (Zea mays)): 10; Corn plant response rating (corn (Zea mays)): 40; Plant response rating, Blackgrass [14]: 0; Blackgrass plant response rating [14]: 70; Plant response rating, Galium [15]: 80; Galium plant response rating [15]: 90
COc1ccnn(-c2cc(NS(=O)(=O)C(F)(F)F)c(C)cc2C)c1=O [Compound 60] | 90 | 90 | 90 | 90 | 30 | 70 | 80 | 90 | 80 | 90 | 100 | 100 | 70 | 70 | 40 | 80 | 50 | 70 | 70 | 80 | Plant response rating, Foxtail, Giant [11]: 60; Foxtail, Giant plant response rating [11]: 90; Plant response rating, Pigweed [12]: 80; Pigweed plant response rating [12]: 90; Plant response rating, Wheat [13]: 50; Wheat plant response rating [13]: 70; Plant response rating, Corn (corn (Zea mays)): 10; Corn plant response rating (corn (Zea mays)): 60; Plant response rating, Blackgrass [14]: 40; Blackgrass plant response rating [14]: 70; Plant response rating, Galium [15]: 90; Galium plant response rating [15]: 90
Cc1cc(C)c(N(S(=O)(=O)C(F)(F)F)S(=O)(=O)C(F)(F)F)cc1-c1cc(C(F)(F)F)nn(C)c1=O [Compound 61] | 100 | 100 | 50 | 90 | 0 | 0 | 70 | 100 | 100 | 100 | 50 | 80 | 20 | 80 | 40 | 60 | 0 | 30 | 40 | 80 | Plant response rating, Foxtail, Giant [11]: 0; Foxtail, Giant plant response rating [11]: 70; Plant response rating, Pigweed [12]: 20; Pigweed plant response rating [12]: 80; Plant response rating, Wheat [13]: 40; Wheat plant response rating [13]: 70; Plant response rating, Corn (corn (Zea mays)): 20; Corn plant response rating (corn (Zea mays)): 10; Plant response rating, Blackgrass [14]: 0; Blackgrass plant response rating [14]: 30; Plant response rating, Galium [15]: 50; Galium plant response rating [15]: 60
Cc1cc(-c2cc(NS(=O)(=O)C(F)(F)F)c(C)cc2C)c(=O)n(C)n1 [Compound 62] | 100 | 100 | 70 | 90 | 20 | 80 | 40 | 100 | 100 | 100 | 50 | 90 | 0 | 70 | 20 | 40 | 0 | 20 | 0 | 20 | Plant response rating, Foxtail, Giant [11]: 0; Foxtail, Giant plant response rating [11]: 80; Plant response rating, Pigweed [12]: 20; Pigweed plant response rating [12]: 40; Plant response rating, Wheat [13]: 0; Wheat plant response rating [13]: 60; Plant response rating, Corn (corn (Zea mays)): 0; Corn plant response rating (corn (Zea mays)): 0; Plant response rating, Blackgrass [14]: 0; Blackgrass plant response rating [14]: 50; Plant response rating, Galium [15]: 70; Galium plant response rating [15]: 80
